This note sets out measurements from patent US12281125B2, “Rapamycin derivatives” (NOVARTIS AG, priority 2018, dated 2025).

Assay [1] deals with T1, FKBP12-rapalog-mTOR (amino acids 2019-2112) ternary complex (Homo sapiens, UniProt P42345+P62942).
T1 construct: his^6-mTOR (amino acids 2019-2112) was diluted in buffer; made in house; host or cells: E. coli
Kind of assay: SPR ternary complex formation, rapalog bound to FKBP12 with mTOR. The format is binding. The note with it: rapalog bound to FKBP with mTOR, read-out: FKBP12 apparent affinity KD for ternary complex formation. The method, then: (§1) N-terminal avi-his6-tagged FKBP fusion proteins were expressed in E. coli and purified with nickel chromatography using standard procedures. Biotinylated his-avi-FKBPs were immobilized on a streptavidin chip using a Biacore 8K (GE Healthcare). To determine the kinetics-affinity of the rapalogs for FKBPs, rapalogs were diluted in DMSO to 50× working concentration. Next, 3.1 uLs of each rapalog solution was added to 150 uLs of buffer (50 mM Tris pH 7.5/150 mM NaCl/0.01% Tween 20/1 mM DTT) in a 384 deep well plate (greiner bio-one/78127) and mixed using a Biomek FX. The rapalog solution gradients (6 concentrations/2 fold dilutions, 3.1-100 nM or 31-1000 nM or 310-10000 nM) were then injected at 45 uL/min for 120 seconds: contact time and dissociation time was 1800 seconds in running buffer (50 mM Tris pH 7.5/150 mM NaCl/0.01% Tween 20/1 mM DTT/2% DMSO). The single-cycle kinetics data were fit to a 1:1 binding model to measure the association rate ka (1/Ms), the dissociation rate kd (1/s) and the affinity KD (M). […] 3.1 uLs of the 500 μM rapalog solutions were added to 150 uLs of the mTOR samples in a 384 deep well plate (greiner bio-one/78127) and mixed using a Biomek FX. The mTOR solution gradients were then injected at 45 uL/min for 120 seconds: contact time and dissociation time was 1800 seconds in running buffer (50 mM Tris pH 7.5/150 mM NaCl/0.01% Tween 20/1 mM DTT/2% DMSO). […]

In assay [2] the test system is mTORC1 activity, S6K1 (Thr389) in FKBP12/12.6/13/52/51 knock-out 293T cells. Kind of assay: S6K1(Thr389) phosphorylation ELISA in FKBP12/12.6/13/52/51 knock-out 293T cells. In kind it is cell-based. The text has this: A CRISPR/Cas9 system was used to deliver ribonucleoprotein complexes containing guide RNA (gRNA) sequences that target FKBP12
([…], location 35620248) into 293T cells, using the Amaxa® 4D-Nucleofector™ X Kit (Lonza, V4XC-2032). Cell clones were screened by immunoblotting with anti-FKBP-specific antibodies: FKBP12 (Novus, NB300-508), FKBP12.6 (Abnova, H00002281-M01), FKBP13 (R&D Systems, MAB4356), FKBP25 (R&D Systems, MAB3955), FKBP52 (Cell signaling Technology, #11826) and FKBP51 (Cell signaling Technology, #12210). […] Quintuple FKBP12/12.6/13/52/51 knock-out and FKBP12/12.6/25/52/51 knock-out cells were generated by sequentially knocking out five FKBP genes.
(§2) WT, FKBP12 knock-out, FKBP12/12.6/13/52/51 knock-out or FKBP12/12.6/25/52/51 knock-out 293T cells were plated at a density of 30,000 cells per well in poly-D-Lysine coated 96-well plates (Corning, #354461) in Dulbecco's modified Eagle's medium (ThermoFisher, #11995-065) supplemented with 10% fetal bovine serum (ThermoFisher, #16140-071). Cells were incubated at 37° C., 5% CO2 for 48 hours until they reached ˜80% confluence. […] Media supplemented with blank Dimethyl sulfoxide (DMSO) was used as a control for both compounds. Phosphorylated amounts of S6K1 (Thr389) were detected by a sandwich ELISA kit (Cell signaling, #7063C) following the manufacture's protocol.

Assay [3] addresses T2, FKBP12.6-rapalog-mTOR (amino acids 2019-2112) ternary complex (Homo sapiens, UniProt P42345+P68106).
T2 construct: his^6-mTOR (amino acids 2019-2112) was diluted in buffer; made in house; host or cells: E. coli
Kind of assay: SPR ternary complex formation, rapalog bound to FKBP12.6 with mTOR. In kind it is binding. Conditions: rapalog bound to FKBP with mTOR, read-out: FKBP12.6 apparent affinity KD for ternary complex formation. Here is the method: as §1

For assay [4], the target named is T3, FKBP51 (Homo sapiens, UniProt Q13451).
T3 construct: made in house; host or cells: E. coli
T3 sequence (Q13451 1-457): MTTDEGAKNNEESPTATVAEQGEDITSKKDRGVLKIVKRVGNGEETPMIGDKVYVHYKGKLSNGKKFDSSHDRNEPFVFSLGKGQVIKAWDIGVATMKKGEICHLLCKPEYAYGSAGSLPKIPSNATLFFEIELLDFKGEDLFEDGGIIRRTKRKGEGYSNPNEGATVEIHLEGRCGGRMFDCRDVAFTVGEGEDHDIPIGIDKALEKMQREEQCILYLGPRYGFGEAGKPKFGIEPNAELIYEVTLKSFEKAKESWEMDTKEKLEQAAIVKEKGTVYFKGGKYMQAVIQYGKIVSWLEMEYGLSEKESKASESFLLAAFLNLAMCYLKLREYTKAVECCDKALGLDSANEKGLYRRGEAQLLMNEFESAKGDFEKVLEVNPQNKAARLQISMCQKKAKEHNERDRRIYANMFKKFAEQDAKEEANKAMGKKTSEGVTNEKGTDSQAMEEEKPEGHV
Kind of assay: SPR assay, binding affinity to FKBP51. Conditions: equilibrium dissociation constant. An excerpt:
N-terminal avi-his6-tagged FKBP fusion proteins were expressed in E. coli and purified with nickel chromatography using standard procedures. Biotinylated his-avi-FKBPs were immobilized on a streptavidin chip using a Biacore 8K (GE Healthcare). […] The single-cycle kinetics data were fit to a 1:1 binding model to measure the association rate ka (1/Ms), the dissociation rate kd (1/s) and the affinity KD (M). […] The single-cycle kinetics data was fit to a 1:1 binding model to measure the association rate ka (1/Ms), the dissociation rate kd (1/s) and the apparent affinity KD (M) for ternary complex formation. The equilibrium dissociation constants (KD) to FKBP12, FKBP51, and FKBP52 are shown below in Table 6.
(Surface plasmon resonance follows binding to a sensor surface in real time, without labels.)

In assay [5] the target is T4, FKBP51-rapalog-mTOR (amino acids 2019-2112) ternary complex (Homo sapiens, UniProt P42345+Q13451).
T4 construct: his^6-mTOR (amino acids 2019-2112) was diluted in buffer; made in house; host or cells: E. coli
Kind of assay: SPR ternary complex formation, rapalog bound to FKBP51 with mTOR. In kind it is binding. The note with it: rapalog bound to FKBP with mTOR, read-out: FKBP51 apparent affinity KD for ternary complex formation. The method, then: as §1

The test system of assay [6] is mTORC1 activity, S6K1 (Thr389) in WT 293T cells. Kind of assay: S6K1(Thr389) phosphorylation ELISA in wild-type 293T cells. Conditions: 2 hours. The format is cell-based. The method, then:
as §2
S6K1 is a downstream target of mTORC1 and phosphorylation of its rapalog-sensitive Thir389 site is used as a functional readout of mTORC1 activity (Lee, C. H., Inoki, K. and Guan, K. L. (2007). mTOR pathway as a target in tissue hypertrophy. Annu. Rev. Pharmacol. Toxicol. 47, 443-467).
(In general: In an ELISA, binding on a coated surface is turned into a signal by an enzyme label.)

Molecules are shown by their SMILES.

T1 sequence (P62942 whole entry, the tested form may be a part): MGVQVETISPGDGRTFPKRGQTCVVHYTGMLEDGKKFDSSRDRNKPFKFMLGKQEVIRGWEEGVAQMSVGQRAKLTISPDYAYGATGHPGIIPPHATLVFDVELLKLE
T1 sequence (P42345 2019-2112 limits assumed): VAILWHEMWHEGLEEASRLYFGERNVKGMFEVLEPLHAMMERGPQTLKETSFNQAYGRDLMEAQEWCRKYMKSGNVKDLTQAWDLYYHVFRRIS
T4 sequence (P42345 2019-2112 limits assumed, one chain of several): as the sequence (P42345 2019-2112 limits assumed) above
T2 sequence (P68106 whole entry, the tested form may be a part): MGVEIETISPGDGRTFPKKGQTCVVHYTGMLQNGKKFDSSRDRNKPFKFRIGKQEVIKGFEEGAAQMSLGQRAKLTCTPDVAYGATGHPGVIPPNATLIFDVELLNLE
T2 sequence (P42345 2019-2112 limits assumed): as the sequence (P42345 2019-2112 limits assumed) above

With `CO[C@@H]1C[C@H](C[C@@H](C)[C@@H]2CC[C@H](C)/C=C(\C)[C@@H](O)[C@@H](OC)C(=O)[C@H](C)C[C@H](C)/C=C/C=C/C=C(\C)[C@@H](NS(C)(=O)=O)C[C@@H]3CC[C@@H](C)[C@@](O)(O3)C(=O)C(=O)N3CCCC[C@H]3C(=O)O2)CC[C@H]1O` [Compound 2], the Kd in assay [1] amounted to 25 nM; in assay [3], 55 nM; in assay [4], 144 nM; in assay [5] it was 52 nM. Moreover, in assay [2], the “inhibitory effect (potency) on S6K1 (Thr389), in words” value was “efficacious in inhibiting S6K1 (Thr389)”. The “inhibition of S6K1 (Thr389)” value in assay [2] (at the highest tested concentration) is roughly 90%. The “inhibition of S6K1(Thr389) phosphorylation” value in assay [6] was roughly 80%.
For `CO[C@H]1C[C@@H]2CC[C@@H](C)[C@@](O)(O2)C(=O)C(=O)N2CCCC[C@H]2C(=O)O[C@H]([C@H](C)C[C@@H]2CC[C@@H](OCCO)[C@H](OC)C2)CC(=O)[C@H](C)/C=C(\C)[C@@H](O)[C@@H](OC)C(=O)[C@H](C)C[C@H](C)/C=C/C=C/C=C/1C` [RAD001, everolimus, reference compound], the Kd in assay [1] turned out to be 21 nM; in assay [3], 47 nM; in assay [4] it was 811 nM; in assay [5], 348 nM. The “inhibitory effect (potency) on S6K1 (Thr389), in words” value in assay [2] is listed as “lost almost all it potency”. Besides, the “inhibition of S6K1(Thr389) phosphorylation” value in assay [6] is roughly 80%.
